Experimental data as given in US20020068749A1, “AIDS REMEDY” (priority 1996, published 2002).

Test: Dynamics in vivo (concentration in plasma over time) of KNI-272 and Ritonavir in dogs
Settings: for MRT / AUC / Cmax / Tmax: dog, plasma, 15 mg/kg
[1] = po, KNI-272 15 mg/kg p.o., administered after Ritonavir, dogs
[2] = po, KNI-272 15 mg/kg p.o., administered before Ritonavir, dogs

For `CSC[C@H](NC(=O)COc1cccc2cnccc12)C(=O)N[C@@H](Cc1ccccc1)[C@H](O)C(=O)N1CSC[C@H]1C(=O)NC(C)(C)C` [KNI-272, (R)-N-1,1-dimethylethyl-3-[(2S,3S)-2-hydroxy-3-[(R)-2-(5-isoquinolyloxyacetyl)amino-3-methylthiopropanoyl]amino-4-phenylbutanoyl]-1,3-thiazolidine-4-carboxyamide], the Cltot (KNI-272 15 mg/kg i.v., dogs) was 1.49 h⁻¹ kg⁻¹, the “Vd(ss)” value (KNI-272 15 mg/kg i.v., dogs) was 0.70 kg⁻¹ and the F (KNI-272 15 mg/kg p.o., administered after Ritonavir, dogs) was 55.2%. The F (KNI-272 15 mg/kg p.o., administered before Ritonavir, dogs) was 4.6%, the MRT (iv, KNI-272 15 mg/kg i.v., dogs) was 28.2 min and the AUC (iv, KNI-272 15 mg/kg i.v., independent administration, dogs) was 10100 ng·h/mL. For the same molecule, the AUC (po, KNI-272 15 mg/kg p.o., administered after Ritonavir (100 mg/body p.o., 30 min interval), dogs) was 5570 ng·h/mL, the Cmax [1] was 2800 ng/mL and the MRT [1] was 96.8 min. For the same molecule, the Tmax [1] was 30 min, the AUC (po, KNI-272 15 mg/kg p.o., administered before Ritonavir (100 mg/body p.o., 30 min interval), dogs) was 467 ng·h/mL and the Cmax [2] was 1000 ng/mL. The MRT [2] was 30.8 min, the Tmax [2] was 5 min and the “MRT value (index of the half-life of concentration in blood)” value (medicaments individually administered) was 30 min.
